Experimental data: article PMC4556473 (British Journal of Pharmacology, 2015)
One block for each compound: values may come before it.

How the values were obtained:
[1] = target: T1, WT mSlo3 (KCa5.1) channels (Mus musculus, UniProt O54982); assay: Two-electrode voltage clamp of WT mSlo3 currents in Xenopus oocytes; type: cell-based; conditions: for inhibition of WT mSlo3 current: pulses to +100 mV
T1 construct: Full-length WT, R196Q and F304Y mSlo3 K^+ channel subunits were expressed in Xenopus oocytes; expressed in transfected cells; host or cells: Xenopus laevis oocytes injected with in vitro transcribed capped mRNA (pBF vector)
T1 sequence (O54982 1-1121): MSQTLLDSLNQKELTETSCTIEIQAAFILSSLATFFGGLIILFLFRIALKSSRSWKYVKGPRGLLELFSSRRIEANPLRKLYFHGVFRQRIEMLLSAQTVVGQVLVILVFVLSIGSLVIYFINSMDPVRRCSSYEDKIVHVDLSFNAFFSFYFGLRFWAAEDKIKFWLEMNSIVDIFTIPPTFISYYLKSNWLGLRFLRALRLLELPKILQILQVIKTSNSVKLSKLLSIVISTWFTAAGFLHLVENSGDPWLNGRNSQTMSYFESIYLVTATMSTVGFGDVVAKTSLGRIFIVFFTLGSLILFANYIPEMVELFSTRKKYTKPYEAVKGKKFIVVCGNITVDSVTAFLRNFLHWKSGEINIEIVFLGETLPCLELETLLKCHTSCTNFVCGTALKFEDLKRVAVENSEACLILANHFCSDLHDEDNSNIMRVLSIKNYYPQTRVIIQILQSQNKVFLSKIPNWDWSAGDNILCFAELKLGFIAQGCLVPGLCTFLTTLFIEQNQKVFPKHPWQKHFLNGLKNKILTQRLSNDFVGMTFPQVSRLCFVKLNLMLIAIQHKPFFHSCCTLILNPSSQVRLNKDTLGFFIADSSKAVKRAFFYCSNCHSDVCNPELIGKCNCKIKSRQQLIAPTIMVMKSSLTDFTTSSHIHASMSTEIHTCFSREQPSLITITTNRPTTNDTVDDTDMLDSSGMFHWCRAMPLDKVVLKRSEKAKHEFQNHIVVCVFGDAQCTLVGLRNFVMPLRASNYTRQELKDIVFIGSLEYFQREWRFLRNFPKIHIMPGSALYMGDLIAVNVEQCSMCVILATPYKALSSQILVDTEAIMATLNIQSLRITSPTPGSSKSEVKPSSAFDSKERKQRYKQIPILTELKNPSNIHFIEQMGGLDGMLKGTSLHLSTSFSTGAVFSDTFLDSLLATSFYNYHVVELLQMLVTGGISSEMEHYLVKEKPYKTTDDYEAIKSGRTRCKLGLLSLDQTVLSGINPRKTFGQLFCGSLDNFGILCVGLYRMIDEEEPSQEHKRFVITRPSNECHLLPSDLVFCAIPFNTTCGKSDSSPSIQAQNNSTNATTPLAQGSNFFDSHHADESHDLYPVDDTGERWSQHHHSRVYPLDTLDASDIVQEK
Experimental: A plasmid containing the full-length mSlo3 sequence was a gift from Dr L. Salkoff (Washington University School of Medicine) and the open-reading frame was subcloned into pBF (Baukrowitz et al., [1999]), a vector optimized for in vitro mRNA synthesis and Xenopus oocyte expression. […] The […] and […] mutations were introduced by Quikchange site-directed mutagenesis (Agilent Technologies, Stockport, UK) and confirmed by automated sequencing. In vitro transcription was carried out using the mMessage mMachine SP6 kit (Ambion, Huntingdon, UK) to produce capped mRNA. Individual oocytes were obtained from humanely killed female Xenopus laevis toads (housed either at the University of Leeds, UK or from the European Xenopus Resource Centre, University of Portsmouth, UK) and were injected with 10-50 ng RNA in a 40 nL volume. […] The volume of the bath was 0.5 mL, which was perfused at a rate of approximately 1 mL·min^-1. 100 mM K^+ solution was made by an equimolar replacement of NaCl with KCl. Data were analysed with […], OriginPro 7.5 (Originlab, Northampton, MA, USA), and GraphPad Prism 6 software (GraphPad Software, San Diego, CA, USA). […] Data are presented as the mean ± SEM of n individual oocytes and statistical significance tested using Student's t-test, ANOVA (with Bonferroni post hoc comparison of means), or by Kruskal-Wallis test (with Dunn's post hoc comparison) as indicated in the Results.

F304Y mSlo3 = F304Y mSlo3 (Mus musculus, UniProt O54982, F304Y); assay: Two-electrode voltage clamp of F304Y mSlo3 currents in Xenopus oocytes; type: cell-based; conditions: +100 mV
F304Y mSlo3, sequence (O54982 whole entry F304Y): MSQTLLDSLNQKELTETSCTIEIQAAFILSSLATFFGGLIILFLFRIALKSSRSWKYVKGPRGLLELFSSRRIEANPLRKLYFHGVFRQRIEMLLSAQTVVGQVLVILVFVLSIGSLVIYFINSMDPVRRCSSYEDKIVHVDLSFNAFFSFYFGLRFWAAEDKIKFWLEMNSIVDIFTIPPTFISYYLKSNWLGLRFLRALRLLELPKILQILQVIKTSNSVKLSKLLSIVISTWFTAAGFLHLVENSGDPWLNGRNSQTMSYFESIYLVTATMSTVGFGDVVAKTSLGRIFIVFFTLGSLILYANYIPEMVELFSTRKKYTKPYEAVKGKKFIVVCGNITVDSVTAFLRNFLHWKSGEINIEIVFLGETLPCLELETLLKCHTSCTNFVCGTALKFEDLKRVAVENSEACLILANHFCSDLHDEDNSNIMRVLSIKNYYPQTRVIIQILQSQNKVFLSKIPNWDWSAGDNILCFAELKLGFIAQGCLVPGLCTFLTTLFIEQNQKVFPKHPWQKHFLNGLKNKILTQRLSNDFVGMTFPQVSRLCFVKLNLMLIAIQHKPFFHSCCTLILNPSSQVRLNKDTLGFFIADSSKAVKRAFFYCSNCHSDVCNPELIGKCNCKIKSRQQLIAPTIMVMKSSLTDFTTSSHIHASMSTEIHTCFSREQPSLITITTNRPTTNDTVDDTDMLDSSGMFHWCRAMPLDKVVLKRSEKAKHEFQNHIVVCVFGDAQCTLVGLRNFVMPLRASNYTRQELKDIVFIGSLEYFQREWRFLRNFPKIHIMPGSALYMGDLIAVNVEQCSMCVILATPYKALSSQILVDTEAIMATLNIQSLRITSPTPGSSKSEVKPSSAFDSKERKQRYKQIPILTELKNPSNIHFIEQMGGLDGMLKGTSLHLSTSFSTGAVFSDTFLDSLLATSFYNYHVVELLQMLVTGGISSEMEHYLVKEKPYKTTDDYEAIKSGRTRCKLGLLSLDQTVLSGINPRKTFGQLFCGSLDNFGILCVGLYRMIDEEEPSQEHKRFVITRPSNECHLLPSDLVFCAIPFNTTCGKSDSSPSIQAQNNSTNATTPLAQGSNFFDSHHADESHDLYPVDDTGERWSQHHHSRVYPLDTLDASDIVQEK
Experimental: A plasmid containing the full-length mSlo3 sequence was a gift from Dr L. Salkoff (Washington University School of Medicine) and the open-reading frame was subcloned into pBF (Baukrowitz et al., [1999]), a vector optimized for in vitro mRNA synthesis and Xenopus oocyte expression. […] The […] and […] mutations were introduced by Quikchange site-directed mutagenesis (Agilent Technologies, Stockport, UK) and confirmed by automated sequencing. In vitro transcription was carried out using the mMessage mMachine SP6 kit (Ambion, Huntingdon, UK) to produce capped mRNA. Individual oocytes were obtained from humanely killed female Xenopus laevis toads (housed either at the University of Leeds, UK or from the European Xenopus Resource Centre, University of Portsmouth, UK) and were injected with 10-50 ng RNA in a 40 nL volume. […] The volume of the bath was 0.5 mL, which was perfused at a rate of approximately 1 mL·min^-1. 100 mM K^+ solution was made by an equimolar replacement of NaCl with KCl. Data were analysed with […], OriginPro 7.5 (Originlab, Northampton, MA, USA), and GraphPad Prism 6 software (GraphPad Software, San Diego, CA, USA). […]

SMILES: [Ba+2].[Cl-].[Cl-] [Ba^2+, barium chloride]
inhibition of WT mSlo3 current ([1]; 2 mM, 2.5 mM extracellular K+): strongly inhibited
inhibition of WT mSlo3 current in high extracellular K+ ([1]; 2 mM, extracellular K+ raised to 100 mM): prevented
Hill slope of inhibition of WT mSlo3 currents ([1]; +100 mV): 0.88 ± 0.11
IC50 ([1]; currents evoked by voltage pulses to +100 mV, Xenopus oocytes, 2.5 mM K+ Ringer's pH 8, read-out: IC50 of inhibition of WT mSlo3 currents): 646 ± 100 µM
Hill slope of inhibition of F304Y mSlo3 currents (F304Y mSlo3): 1.05 ± 0.12
IC50 (F304Y mSlo3; Xenopus oocytes, read-out: IC50 of inhibition of F304Y mSlo3 currents): 525 ± 97 µM

SMILES: CC[N+](CC)(CC)CC.[Cl-] [TEA^+, tetraethlyammonium chloride]
inhibition of WT mSlo3 current ([1]; 20 mM): weakly inhibited

inhibition of WT mSlo3 current ([1]; 50 μM): more strongly inhibited
SMILES: CCCCCCC[N+](CC)(CC)CCCCc1ccc(Cl)cc1 [clofilium]

inhibition of WT mSlo3 current ([1]; 5 μM): weakly inhibited
SMILES: COCC(=O)O[C@]1(CCN(C)CCCc2nc3ccccc3[nH]2)CCc2cc(F)ccc2[C@@H]1C(C)C [mibefridil, mibefradil]
